Test results: patent publication US9096576B2, “Compounds and methods for treatment of systemic lupus erythematosus” (The Feinstein Institute For Medical Research, priority 2010, dated 2015)
Entries after “also recorded” stand apart in the source; their conditions may differ.

Tests used:
anti-BSA antibody = experiment: binding of an anti-BSA antibody to BSA (specificity control); settings: data not shown
G11 human autoantibody = experiment: competitive ELISA, G11 autoantibody binding to its antigens
Excerpt: (§1) FIG. 1A-1E. Compound 12W inhibits antigen recognition by systemic lupus erythematosus (SLE) autoantibodies. A) Structures of Compound 12W and WEY peptide (i.e., a tripeptide identical to the pentapeptide DWEYS (SEQ ID NO:1) less the carboxyl serine residue and the amino terminal aspartate of the pentapeptide). B) R4A mouse autoantibody binding to DWEYS (SEQ ID NO:1) peptide. C) R4A mouse autoantibody binding to DNA. D) G11 human autoantibody binding to DWEYS (SEQ ID NO:1) peptide. E) G11 human autoantibody binding to DNA. In B)-E), antibody binding in the presence of DWEYS peptide is shown in the right plot in each figure. Compound 12W inhibits binding as shown by the left plot in each figure.

R4A or G11 antibodies = experiment: neurotoxicity of intracerebrally injected lupus autoantibodies, TUNEL staining; format: in vivo, mice
Description: FIG. 3. Compound 12W inhibits neurotoxicity of autoantibodies. The lupus autoantibodies caused significant neuronal apoptosis, as indicated by positive TUNEL staining (right panels).
Both R4A and G11 cause excitotoxic death of neurons in the mouse hippocampus (Zhang et al. 2009). Therefore, the ability of Compound 12W to negate the neurotoxicity of these autoantibodies was assayed. To test the neuroprotective potential of Compound 12W, mice were injected intracerebrally with R4A or G11 antibodies in the presence and absence of Compound 12W. As shown previously, the lupus autoantibodies caused significant neuronal apoptosis, as indicated by positive TUNEL staining (FIG. 3, upper and lower right panels). […] The neuroprotective dose of Compound 12W was 2 logs less than that previously used to achieve similar neuroprotection with the DWEYS (SEQ ID NO:1) peptide (Huerta et al. 2006).

R4A mouse autoantibody = experiment: competitive ELISA, R4A autoantibody binding to its antigens; settings: in vitro; for inhibition of R4A binding to DWEYS peptide: antigen DWEYS peptide, FIG. 1B; for inhibition of R4A binding to dsDNA: antigen dsDNA, FIG. 1C
Excerpt: as §1

human lupus sera = experiment: binding of lupus sera to mouse kidney glomeruli; settings: data not shown
Description: (§2) The studies above tested the ability of Compound 12W to neutralize monoclonal antibodies derived from mouse or human lupus sera. It was next tested whether Compound 12W would be similarly effective in inhibiting the polyclonal autoreactivity present in lupus patient sera (FIG. 4). Sera from lupus patients were pre-incubated with the Compound 12W and binding to DWEYS (SEQ ID NO:1) and dsDNA was then assayed in a competitive ELISA. […] The ability of Compound 12W to inhibit binding of lupus sera to mouse kidney glomeruli was also assayed.

[1] = system: anti-dsDNA/NMDAR G11/R4A/human lupus antibody; experiment: glomerular deposition of anti-dsDNA/NMDAR antibody in vivo; design: species or system SCID mice
Description: In order to test if Compound 12W was also effective at protecting the kidney, a major target organ in lupus, from antibody deposition, the anti-dsDNA/NMDAR G11/R4A/human lupus antibody was administered to SCID mice in the absence and presence of Compound 12W and glomerular deposition was measured.

R4A antibody [2] = experiment: R4A binding to mouse kidney glomeruli in situ; settings: for inhibition of R4A binding to mouse kidney glomeruli: antibody pre-incubated, presence and absence of DNAse, FIG. 2A
Excerpt: FIG. 2A-2B. Compound 12W inhibits SLE autoantibody binding to glomeruli in situ. A) Data with R4A. B) Data with G11. From left to right: control, +DNAse, +Compound 12W, +DNAse+Compound 12W.
The kidney is a major target organ in SLE, with renal disease occurring in approximately 50% of patients. Glomerular deposition of circulating autoantibodies leads to a cascade of inflammatory events including renal infiltration by activated immune cells, activation of dendritic cells through Toll-like receptors and pro-inflammatory cytokine production (Bagavant and Fu 2009), which can culminate in end-stage renal disease. […] The R4A and G11 antibodies, as well as other pathogenic lupus antibodies, bind to both DNA and non-DNA antigens present in kidney glomeruli ex vivo. […] To test if Compound 12W could block the binding of the R4A antibody to its renal antigens in situ, the R4A antibody was incubated with mouse kidney glomeruli in the presence and absence of Compound 12W and its binding measured by detection with fluorescently-conjugated secondary antibodies.

[3] = system: autoantibodies present in serum from multiple lupus patients; experiment: competitive ELISA, lupus patient sera binding to DWEYS peptide; design: species or system human; settings: sera pre-incubated, FIG. 4
Description: FIG. 4. Compound 12W inhibits autoantibodies present in human SLE sera. Inhibition of human SLE sera binding to antigens in vitro.
as §2

[4] = system: anti-dsDNA/NMDAR G11/R4A/human lupus antibody; settings: mice; Gaynor et al. 1997, Huerta et al. 2006; cited from earlier work
R4A antibody [5] = settings: literature; cited from earlier work

Molecule	inhibition of binding of an anti-BSA antibody to BSA (anti-BSA antibody)	inhibition of G11 binding to DNA (G11 human autoantibody; antigen DNA, FIG. 1E)	inhibition of G11 binding to DWEYS peptide (G11 human autoantibody; antigen DWEYS peptide, FIG. 1D)	neuroprotective dose relative to that previously used with the DWEYS peptide (R4A or G11 antibodies; less than DWEYS peptide dose (Huerta et al. 2006)) [logs]	neuronal apoptosis caused by lupus autoantibodies (TUNEL staining) (R4A or G11 antibodies; mice, intracerebral co-administration with R4A or G11, FIG. 3)	inhibition of R4A binding to DWEYS peptide (R4A mouse autoantibody)	inhibition of R4A binding to dsDNA (R4A mouse autoantibody)	inhibition of binding of human lupus sera to mouse kidney glomeruli (human lupus sera)	autoantibody binding to renal tissue in vivo [1]	inhibition of R4A binding to mouse kidney glomeruli (R4A antibody [2])	dose dependence of inhibition of R4A binding to glomeruli (R4A antibody [2]; data not shown)	inhibition of lupus patient sera binding to DWEYS peptide [3]	renal (and brain) deposition of anti-DNA/NMDAR antibodies in vivo, literature [4]	glomerular binding by R4A blocked (Gaynor et al 1997) (R4A antibody [5])
CC(C)(C)NCC1CC2CCCCC2CN1CC(O)C(Cc1ccccc1)NCC(CCN)NCC1Nc2ccccc2CC1O (centres unmarked) [Compound 12W, 2-((4-amino-1-(4-(3-((tert-butylamino)methyl)octahydroisoquinolin-2(1H)-yl)-3-hydroxy-1-phenylbutan-2-ylamino)butan-2-ylamino)methyl)-1,2,3,4-tetrahydroquinolin-3-ol]	failed to inhibit binding	inhibited G11 binding at similar concentrations to its effect on R4A binding	inhibited G11 binding at similar concentrations to its effect on R4A binding	2	blocked the neurotoxic effects of the lupus antibodies	able to inhibit R4A binding to these same antigens at nM concentrations	able to inhibit R4A binding to these same antigens at nM concentrations	blocked binding of human lupus sera to kidney antigens	blocked autoantibody binding to renal tissue both ex vivo and in vivo	Dramatically less binding was observed to both DNA and non-DNA antigens	dependent on the dose	able to inhibit binding		
DWEYS peptide: pentapeptide DWEYS (SEQ ID NO:1), antigen/mimetope recognised by anti-dsDNA/NMDAR lupus autoantibodies (listed as Homo sapiens) [reference compound]						inhibitable by DWEYS (SEQ ID NO:1) peptide at mM concentrations	inhibitable by DWEYS (SEQ ID NO:1) peptide at mM concentrations			could be mimicked by pre-incubation of the R4A antibody with the DWEYS (SEQ ID NO:1) peptide at mM concentrations			blocks renal and brain deposition of anti-DNA/NMDAR antibodies in mice; also recorded: able to block binding of the anti-dsDNA antibodies to kidneys in vivo	can be blocked
